Assay results as given in PMC7155171, “Probing the Open Global Health Chemical Diversity Library for Multistage-Active Starting Points for Next-Generation Antimalarials” (ACS Infectious Diseases, 2020).
Read-outs that look alike come from different tables or passages of the source.

Key:
[1] = system: P. falciparum Dd2 (PfLuc) line expressing firefly luciferase, asexual blood stage; test: microbe, parasite or virus in culture; type: cell-based, Plasmodium falciparum; conditions: Plasmodium falciparum
P. falciparum Dd2 = test: SYBR green I asexual blood stage proliferation assay (96 h); type: cell-based, Plasmodium falciparum; conditions: for IC50 / Emax: Plasmodium falciparum
[2] = DD2, read-out: CDD P. falciparum Luciferase ABS 11-pt Reconfirmation Dose Response (48hr): IC50 (μM), 11-pt dose response, 48hr
[3] = DD2, 8-pt dose response, 96hr, read-out: CDD P. falciparum Luciferase ABS 8-pt Reconfirmation Dose Response (96hr): IC50
[4] = DD2, 8-pt dose response, 96hr, read-out: CDD P. falciparum Luciferase ABS 8-pt Reconfirmation Dose Response (96hr): Maximum inhibition (%)
[5] = DD2, 11-pt dose response, 48hr, read-out: CDD P. falciparum Luciferase ABS 11-pt Reconfirmation Dose Response (48hr): Maximum inhibition (%)
[6] = DD2, 11-pt dose response, 96hr, read-out: CDD P. falciparum Luciferase ABS 11-pt Reconfirmation Dose Response (96hr): IC50
[7] = DD2, 11-pt dose response, 96hr, read-out: CDD P. falciparum Luciferase ABS 11-pt Reconfirmation Dose Response (96hr): Maximum inhibition (%)
[8] = DD2, Sybr Green I, 11-pt dose response, 96hr, read-out: CDD P. falciparum Sybr Green I ABS 11-pt Reconfirmation Dose Response (96hr): IC50
[9] = DD2, Sybr Green I, 11-pt dose response, 96hr, read-out: CDD P. falciparum Sybr Green I ABS 11-pt Reconfirmation Dose Response (96hr): Maximum inhibition (%)
[10] = DD2, read-out: P. falciparum Luciferase ABS 11-pt Reconfirmation Dose Response (48hr): IC50, 11-pt dose response, 48hr
[11] = DD2, 8-pt dose response, 96hr, read-out: P. falciparum Luciferase ABS 8-pt Reconfirmation Dose Response (96hr): IC50
[12] = DD2, 11-pt dose response, 48hr, read-out: P. falciparum Luciferase ABS 11-pt Reconfirmation Dose Response (48hr): Maximum inhibition (%)
[13] = DD2, 11-pt dose response, 96hr, read-out: P. falciparum Luciferase ABS 11-pt Reconfirmation Dose Response (96hr): Maximum inhibition (%)
[14] = DD2, 11-pt dose response, 96hr, read-out: P. falciparum Sybr Green I ABS 11-pt Reconfirmation Dose Response (96hr): IC50
[15] = DD2, 11-pt dose response, 96hr, read-out: P. falciparum Sybr Green I ABS 11-pt Reconfirmation Dose Response (96hr): Maximum inhibition (%)

SMILES | IC50 [1, 2] [µM] | IC50 [1, 3] [µM] | Emax [1, 4] [%] | Emax [1, 5] [%] | IC50 [1, 6] [µM] | Emax [1, 7] [%] | IC50 (P. falciparum Dd2; [8]) [nM] | Emax (P. falciparum Dd2; [9]) [%] | also measured
COc1cccc(CNCc2cccc(Cl)c2)c1O [DDD01038248] | 4.63 | 0.99 | 92.4 | 87.8 | 1.9 | 98 | 2690 | 92.1 | 
COc1cccc(CNCc2ccc(F)cc2Cl)c1O [DDD01038249] | > 4.16 | 0.94 | 87.2 | 36 | 2.78 | 95.4 | > 4160 | 92.8 | 
COc1cccc(CNCc2ccc(F)c(Cl)c2)c1O [DDD01038250] | 3.18 | 0.56 | 93.8 | 93.8 | 1.4 | 99.2 | 1970 | 98.2 | 
Cc1cccc(NC(=O)c2cccc(OCc3nnnn3C)c2)n1 [DDD01038630] | 0.916 | 0.34 | 94.9 | 99.2 | > 0.462 | 99.5 | 2540 | 99.2 | 
CN[C@@H]1CCC[C@@H](Oc2ccccc2Oc2ccc(C)cc2)[C@@H]1O [DDD01056673] | 1.83 | 0.52 | 96 | 97 | 0.625 | 99.7 | 2330 | 99.2 | 
c1cnc(N2CCC(c3csc(Nc4cnccn4)n3)CC2)nc1 [DDD01056714, C1CN(CCC1c1csc(Nc2cnccn2)n1)c1ncccn1] |  |  |  |  |  |  |  |  | IC50 ([1]; DD2, read-out: CDD P. falciparum Luc 11pt dose response (96hr, n=2): IC50 (μM), 96hr, 11-point, n=2): 0.0286 µM; IC50 ([1]; DD2, read-out: CDD P. falciparum Luciferase 11pt dose response (48hr, n=2): IC50 (μM), 48hr, 11-point, n=2): 0.0592 µM; Emax ([1]; DD2, 48hr, 11-point, read-out: CDD P. falciparum Luciferase ABS 11-pt Reconfirmation Dose Response (48hr): Maximum inhibition (%)): 82.6%; Emax ([1]; DD2, 96hr, 11-point, read-out: CDD P. falciparum Luciferase ABS 11-pt Reconfirmation Dose Response (96hr): Maximum inhibition (%)): 94.8%; CDD P. falciparum Sybr Green I ABS Dd2 Dose Response: Maximum measured (%) (P. falciparum Dd2; Dd2, 96 h): 55.9%; IC50 (P. falciparum Dd2; DD2, 96 h, read-out: CDD P. falciparum Sybr Green I ABS Dd2 Dose Response: IC50): > 4160 nM
CCC(C)(C)n1nnnc1C(c1cccs1)N1CCc2ccccc2C1 (stereo not drawn) [DDD01056726] | 3.18 | 0.56 | 91.1 | 71.7 | 0.803 | 93.7 | 4960 | 79.3 | 
Cc1cccc(C)c1Nc1noc2c1CN(C(=O)c1ccnn1C)CC2 [DDD01056796] | 0.425 | 0.14 | 96.7 | 98.3 | 0.328 | 101 | 266 | 96.3 | 
Cc1cccc(C)c1Nc1noc2c1CN(C(=O)c1cn(C)cn1)CC2 [DDD01056797] | 0.494 | 0.23 | 95.7 | 99.4 | 0.535 | 101 | 220 | 97.2 | 
Cc1cccc(C)c1Nc1noc2c1CN(C(=O)c1c[nH]nc1C)CC2 [DDD01056871] | 1.9 | 0.77 |  | 87.7 | 1.38 | 96.9 | 2520 |  | 
Cc1ccc(CN(CCN(C)C)Cc2c(C)nc3sccn23)o1 [DDD01056924] |  |  |  |  |  |  |  |  | IC50 [1, 10]: > 12.5 µM; IC50 [1, 11]: 1.82 µM; Emax [1, 12]: 65.3%; IC50 ([1]; DD2, 11-pt dose response, 96hr, read-out: P. falciparum Luciferase ABS 11-pt Reconfirmation Dose Response (96hr): IC50): 2.43 µM; Emax [1, 13]: 88.8%; IC50 (P. falciparum Dd2; [14]): > 4160 nM; Emax (P. falciparum Dd2; [15]): 52.1%
Cc1cccc(C)c1Nc1noc2c1CN(C(=O)c1ccn(C)n1)CC2 [DDD01057030] | 0.885 | 0.26 | 96.3 | 97.1 | 0.693 | 99.6 | 913 | 95.5 | 
CCCNc1cc(-c2c[nH]nc2C2CCN(C(=O)C3CCC3)C2)ccn1 (stereo not drawn) [DDD01057089] | 4.01 | 0.31 | 96.1 | 86.1 | 1.63 | 97.9 | 1340 | 61.5 | 
NC1CCc2nc(-c3cccnc3)nc(Nc3ccc(F)cc3)c2C1 (stereo not drawn) [DDD01057099] | 3.56 | 0.24 | 96.1 | 98.4 | 0.99 | 100 | 1310 | 100 | 
Fc1ccccc1Cn1c(C2CCNCC2)cc2cccnc21 [DDD01057236] | 3.02 | 0.41 | 92.4 | 64.7 | 1.41 |  | 7030 | 70.6 | 
COc1ccccc1C1(NCc2c(C)nc3c(C)cccn23)CCCC1 [DDD01057239] | 4.35 | 0.71 |  | 60.6 | 1.55 | 92 | > 1390 | 68.9 | 
CC(C)Nc1cc(-c2c[nH]nc2C2CCN(C(=O)C3CC3)C2)ccn1 (stereo not drawn) [DDD01057305] | 5.35 | 0.29 | 95.7 |  | 1.73 | 98.4 | 8070 | 76.9 | 
CC(C)CNc1cc(-c2c[nH]nc2C2CCN(C(=O)C3CC3)C2)ccn1 (stereo not drawn) [DDD01057306] | 5.71 | 0.28 | 95.6 |  | 1.93 | 96.6 | 5020 | 50.9 | 
CC(C)Nc1cc(-c2c[nH]nc2C2CCN(C(=O)C3CCC3)C2)ccn1 (stereo not drawn) [DDD01057307] | 4.05 | 0.23 | 94.3 |  | 1.42 | 95.8 | 7490 | 72 | 
COc1cc(C(=O)NCC2(N(C)C)CCN(C)CC2)c2ccccc2n1 [DDD01057375] |  |  |  |  |  |  |  |  | IC50 [1, 10]: > 12.5 µM; IC50 [1, 11]: < 0.00232 µM; Emax ([1]; DD2, 8-pt dose response, 96hr, read-out: P. falciparum Luciferase ABS 8-pt Reconfirmation Dose Response (96hr): Maximum inhibition (%)): 88.6%; Emax [1, 12]: 53%; Emax [1, 13]: 87.3%; IC50 ([1]; 96 h incubation, Dd2 luciferase, read-out: 96 hour Pfluc IC50): 0.00714 µM; IC50 (P. falciparum Dd2; [14]): > 1390 nM; Emax (P. falciparum Dd2; [15]): 63.6%
